Patent US10052310B2, “Separase inhibitors and uses thereof” (Baylor College of Medicine, priority 2013, dated 2018)

Molecular target: T1, Separase (Homo sapiens, UniProt Q14674)
T1 construct: made in house; host or cells: 293T cells; released from IgG-Agarose by TEV protease
Experiment: Fluorogenic Separase activity assay using (Rad21)2-Rh110 as substrate
Assay type: biochemical
Conditions: DMSO final concentration 2% to 38%
Method: The substrate used in this Example is (Rad21)2-Rh110, which has two Rad21 peptide molecules (Asp-Arg-Glu-Ile-Nle-Arg) conjugated to one molecule of Rhodamine 110 (Rh110) (CPC Scientific, Sunnyvale Calif.). The assay was set up using 384-well low volume black polystyrene plates (Corning, N.Y.). Fifteen micro liter of activated Separase (˜5 ng) was mixed with 5 μl of test compound. The cleavage buffer (CB) used to dilute reagents was (30 mM Hepes-KOH pH7.7, 50 mM NaCl, 25 mM NaF, 25 mM KCl, 5 mM MgCl2, 1.5 mM ATP, and 1 mM EGTA). The mixture was incubated at room temperature for 1 h, and then 5 μl of 0.2 mM substrate (Rad21)2-Rh110 was added. The positive control contained Separase, substrate and CB without the test compound. The negative control contained substrate and CB only. After the reaction mixture was incubated at 37° C. for 3 h, the relative fluorescence intensity was measured (without stopping the enzymatic activity) at λex=390 nm/λem=450 nm for […] (AMC) released from Rad21-MCA or λex=490 nm/λem=528 nm for Rh110 released from (Rad21)2-Rh110 using a Synergy™ 4 Multi-Mode Microplate Reader (BioTek Instruments Inc., Winooski, Vt.).
Different amounts of Sepin-1 were mixed with activated Separase for 30 min before substrate (Rad21)2-Rh110 was added. After 3 h incubation at 37° C., the fluorescence intensity of Rh110 was determined. IC50 was calculated using either KaleidaGraph program (Synerge software, Reading, Pa.) or four parameter logistic equation (4-parameter dose-response curve fit): Inhibition of Activity (%)=min+(max−min)/{1+(log [M]/IC50)}^Hill Slop, where “min” and “max” represent minimal and maximal activity inhibition, respectively. Hill Slop is the slope of the curve at its midpoint. To identify the mode of Sepin-1 interacting with Separase, different amounts of both Sepin-1 and (Rad21)2-Rh110 were used in the Separase activity assay.

T1 sequence (Q14674 whole entry): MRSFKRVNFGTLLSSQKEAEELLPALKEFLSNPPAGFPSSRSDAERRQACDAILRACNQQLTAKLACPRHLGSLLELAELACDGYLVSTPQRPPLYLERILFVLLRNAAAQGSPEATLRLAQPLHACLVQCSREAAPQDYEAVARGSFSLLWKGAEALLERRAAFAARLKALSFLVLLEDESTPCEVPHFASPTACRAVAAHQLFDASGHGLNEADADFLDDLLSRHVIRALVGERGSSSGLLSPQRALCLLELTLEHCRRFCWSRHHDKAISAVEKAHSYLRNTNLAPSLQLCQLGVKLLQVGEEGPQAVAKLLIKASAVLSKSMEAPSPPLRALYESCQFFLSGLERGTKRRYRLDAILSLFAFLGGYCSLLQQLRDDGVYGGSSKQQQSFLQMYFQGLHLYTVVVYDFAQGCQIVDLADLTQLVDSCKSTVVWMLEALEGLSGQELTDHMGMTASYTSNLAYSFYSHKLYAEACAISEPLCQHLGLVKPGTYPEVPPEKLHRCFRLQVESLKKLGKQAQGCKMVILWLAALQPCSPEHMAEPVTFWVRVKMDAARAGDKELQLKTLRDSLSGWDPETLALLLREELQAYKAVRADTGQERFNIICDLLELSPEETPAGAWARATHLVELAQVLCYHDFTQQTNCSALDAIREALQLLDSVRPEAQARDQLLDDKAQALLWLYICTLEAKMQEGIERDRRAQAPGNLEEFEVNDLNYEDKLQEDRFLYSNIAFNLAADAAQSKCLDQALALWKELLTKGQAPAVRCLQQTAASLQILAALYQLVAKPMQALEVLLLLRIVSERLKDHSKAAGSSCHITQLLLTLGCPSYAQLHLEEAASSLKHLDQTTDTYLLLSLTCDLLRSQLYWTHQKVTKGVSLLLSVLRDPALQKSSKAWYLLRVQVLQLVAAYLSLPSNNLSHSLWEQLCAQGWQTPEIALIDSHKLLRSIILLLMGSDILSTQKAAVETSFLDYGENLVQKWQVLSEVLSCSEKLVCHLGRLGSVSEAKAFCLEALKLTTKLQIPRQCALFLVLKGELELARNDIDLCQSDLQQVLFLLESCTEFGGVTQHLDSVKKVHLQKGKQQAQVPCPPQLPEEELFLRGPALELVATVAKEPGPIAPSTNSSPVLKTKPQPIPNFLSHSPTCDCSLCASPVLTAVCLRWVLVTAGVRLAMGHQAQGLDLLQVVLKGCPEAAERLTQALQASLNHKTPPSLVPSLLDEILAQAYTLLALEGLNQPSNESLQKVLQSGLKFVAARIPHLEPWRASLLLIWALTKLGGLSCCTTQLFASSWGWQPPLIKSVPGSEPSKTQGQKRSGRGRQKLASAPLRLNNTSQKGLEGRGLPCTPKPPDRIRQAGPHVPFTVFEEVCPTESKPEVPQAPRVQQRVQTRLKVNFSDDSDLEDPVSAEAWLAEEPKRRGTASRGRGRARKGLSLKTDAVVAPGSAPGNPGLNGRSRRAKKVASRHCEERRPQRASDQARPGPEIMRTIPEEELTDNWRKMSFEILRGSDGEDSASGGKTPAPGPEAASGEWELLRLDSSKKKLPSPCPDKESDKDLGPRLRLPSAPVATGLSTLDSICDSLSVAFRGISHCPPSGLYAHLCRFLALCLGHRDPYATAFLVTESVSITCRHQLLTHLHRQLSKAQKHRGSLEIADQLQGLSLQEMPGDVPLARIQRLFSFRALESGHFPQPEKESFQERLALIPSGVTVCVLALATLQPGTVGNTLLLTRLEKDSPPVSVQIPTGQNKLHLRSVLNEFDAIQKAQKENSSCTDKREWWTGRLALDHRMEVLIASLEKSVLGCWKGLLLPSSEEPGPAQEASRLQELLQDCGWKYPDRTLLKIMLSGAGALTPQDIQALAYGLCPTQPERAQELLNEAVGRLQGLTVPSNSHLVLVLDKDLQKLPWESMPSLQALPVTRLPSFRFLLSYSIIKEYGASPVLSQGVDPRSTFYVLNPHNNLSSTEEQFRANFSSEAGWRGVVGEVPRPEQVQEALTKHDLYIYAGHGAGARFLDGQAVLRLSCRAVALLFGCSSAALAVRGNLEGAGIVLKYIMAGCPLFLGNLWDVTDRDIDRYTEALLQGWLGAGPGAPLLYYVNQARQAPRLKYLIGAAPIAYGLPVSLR

Question: For `C[S+](C)[O-]` [DMSO], which “IC50 of DMSO on Separase assay” value is on record?
Answer: ~27%
